Assay results as given in US20030148483A1, “Method of removing residual enzymes in enzyme microencapsulation” (priority 2002, published 2003).

How the values were obtained:
uncapsulated lactase = assay: Assay for the activity of uncapsulated lactase after ozone treatment (ONPG, absorbance at 420 nm); format: biochemical; settings: initial activity 100%
Protocol: After centrifuging the dispersion fluid of microcapsules prepared by ozone treatment in Examples 2 to 4 at 24,900×g for 10 min, the resulting supernatants were assayed for activity of uncapsulated lactase.
A portion of each of the supernatants was primarily filtered using Whatman No. 540 (Whatman International Ltd., Maidstone, England), and then further filtered using an 1 μm membrane filter (Whatman International Ltd., Maidstone, England).
Thereafter, 0.5 ml of the filtered supernatant was mixed with 2 ml of a solution of 0.05 M ONPG (Ortho-nitrophenol-β-D-galactopyranoside, Sigma Chemical Co., St. Louis, Mo. USA) preheated at 37° C. for 15 min, followed by incubation for 20 min at 37° C. After 20 min, the reaction was terminated with adding 0.5 ml of a 0.5 M Na2CO3 solution (Shinoyo Pure Chemical Co., Ltd., Osaka, Japan) thereto.
Absorbance at 420 nm was measured using a spectrophotometer (Beckman Du 650 spectrophotometer; Beckman Instrument, Inc, Fullerton, Calif., USA), and the results are given in FIG. 2.

[1] = system: microencapsulated lactase; assay: Effect of ozone treatment on the activity of microencapsulated lactase (heating method, ONPG); format: biochemical; settings: initial activity 100%
Protocol: With an aim to investigate effect of ozone treatment on microencapsulated lactase, microcapsules containing lactase were collected from the ozone-treated dispersion fluid prepared in Examples 2 to 4 by centrifugation, and the activity of microencapsulated lactase was measured using a heating method among yield analysis methods disclosed in Korean Pat. No. 88465.
0.5 ml of the resulting dispersion fluid containing microcapsules was mixed with 2 ml of 0.05 M ONPG pre-heated at 50° C. for 10 min. After 5 min, the reaction was terminated with adding 0.5 ml of 0.5M Na2CO3 thereto, and absorbance at 420 nm was measured using a spectrophotometer (Beckman Du 650 spectrophotometer, Beckman Instrument, Inc., Fullerton, Calif., USA). The results are given in FIG. 3, where the initial activity of lactase is 100%.
Yield of microcapsule=1−Activity of uncapsulated lactase/ Initial activity of lactase×100

Bacillus subtilis = assay: Effect of ozone treatment on growth of microorganisms (colony count); format: cell-based; settings: ozone 10 ppm, 2° C.; for viability: 0 min = 100
Protocol: (§1) Microorganisms were treated with ozone of 10 ppm, at which concentration much of untrapped lactase loses its activity, while microencapsulated lactase retains effective activity, and effect of ozone on the growth of microorganisms was investigated.
(§2) Pathogenic microorganisms found especially in food, including Escherichia coli, Bacillus subtilis, Staphylococcus aureus, Salmonella typhimurium, Pseudomonas aeruginosa, and Enterobacter aerogenes, were obtained from Korean Culture Center of Microorganisms (Seoul, Korea) and stored in broth containing 50% glycerol at −70° C. until use. The five strains, except S. aureus, were cultured in nutrient broth (NB), and S. aureus was cultured in tryptic soy broth (TSB) for 24 hours at 37° C.
(§3) Trace amounts of the cultured microorganisms were mixed with the dispersion fluid of microcapsules, followed by treatment of ozone of 10 ppm at 2° C. under a flow rate of 10 L/min using an ozone generator.
(§4) After being serially diluted, the ozone-treated microorganisms were plated onto nutrient agar broth.

Enterobacter aerogenes = assay: as above; format: cell-based; settings: ozone 10 ppm, 2° C.; for viability: 0 min = 100
Protocol: as §1, §2, §3, §4

Escherichia coli = assay: as above; format: cell-based; settings: ozone 10 ppm, 2° C.; for viability: 0 min = 100
Protocol: as §1, §2, §3, §4

Pseudomonas aeruginosa = assay: as above; format: cell-based; settings: ozone 10 ppm, 2° C.; for viability: 0 min = 100
Protocol: as §1, §2, §3, §4

Salmonella typhimurium = assay: as above; format: cell-based; settings: ozone 10 ppm, 2° C.; for viability: 0 min = 100
Protocol: as §1, §2, §3, §4

Staphylococcus aureus = assay: as above; format: cell-based; settings: ozone 10 ppm, 2° C.; for viability: 0 min = 100
Protocol: as §1, §2, §3, §4

With `O=[O+][O-]` [ozone] the “activity of lactase (uncapsulated)” value (uncapsulated lactase; 1 ppm of ozone, 1 min) was “about 94.3%”, the “activity of lactase (uncapsulated)” value (uncapsulated lactase; 1 ppm of ozone, 5 min) was 56.4% and the “activity of lactase (uncapsulated)” value (uncapsulated lactase; 1 ppm of ozone, 10 min) was 26.5%. For the same compound, the “activity of lactase (uncapsulated)” value (uncapsulated lactase; 5 ppm of ozone, 1 min) was 82%, the “activity of lactase (uncapsulated)” value (uncapsulated lactase; 5 ppm of ozone, 5 min) was 42.8% and the “activity of lactase (uncapsulated)” value (uncapsulated lactase; 5 ppm of ozone, 10 min) was 20%. For the same compound, the “activity of lactase (uncapsulated)” value (uncapsulated lactase; 10 ppm of ozone, 1 min) was 57.8%, the “activity of lactase (uncapsulated)” value (uncapsulated lactase; 10 ppm of ozone, 5 min) was 32.8% and the “activity of lactase (uncapsulated)” value (uncapsulated lactase; 10 ppm of ozone, 10 min) was 9.7%. For the same compound, the “activity of lactase entrapped into microcapsules” value ([1]; 1 ppm of ozone, 1 min) was “about 97%”, the “activity of lactase entrapped into microcapsules” value ([1]; 1 ppm of ozone, 5 min) was 91% and the “activity of lactase entrapped into microcapsules” value ([1]; 1 ppm of ozone, 10 min) was 74%. The “activity of lactase entrapped into microcapsules” value ([1]; 5 ppm of ozone, 1 min) was 96%, the “activity of lactase entrapped into microcapsules” value ([1]; 5 ppm of ozone, 5 min) was 82% and the “activity of lactase entrapped into microcapsules” value ([1]; 5 ppm of ozone, 10 min) was 67%. The “activity of lactase entrapped into microcapsules” value ([1]; 10 ppm of ozone, 1 min) was 93%, the “activity of lactase entrapped into microcapsules” value ([1]; 10 ppm of ozone, 5 min) was 79% and the “activity of lactase entrapped into microcapsules” value ([1]; 10 ppm of ozone, 10 min) was 65%. The colonies counted (Bacillus subtilis; treatment time 0.5 min) was 9.6 × 10^7 CFU/ml, the viability (Bacillus subtilis; treatment time 0.5 min) was 60% and the colonies counted (Bacillus subtilis; treatment time 1 min) was 2.2 × 10^7 CFU/ml. The viability (Bacillus subtilis; treatment time 1 min) was “(14) %”, the colonies counted (Bacillus subtilis; treatment time 5 min) was 6.0 × 10^6 CFU/ml and the viability (Bacillus subtilis; treatment time 5 min) was “(3.7) %”. For the same compound, the colonies counted (Bacillus subtilis; treatment time 10 min) was 0 CFU/ml, the viability (Bacillus subtilis; treatment time 10 min) was “(0) %” and the colonies counted (Enterobacter aerogenes; treatment time 0.5 min) was 5.4 × 10^6 CFU/ml. For the same compound, the viability (Enterobacter aerogenes; treatment time 0.5 min) was 38%, the colonies counted (Enterobacter aerogenes; treatment time 1 min) was 1.0 × 10^6 CFU/ml and the viability (Enterobacter aerogenes; treatment time 1 min) was “(7.1) %”. For the same compound, the colonies counted (Enterobacter aerogenes; treatment time 5 min) was 2.4 × 10^5 CFU/ml, the viability (Enterobacter aerogenes; treatment time 5 min) was “(1.7) %” and the colonies counted (Enterobacter aerogenes; treatment time 10 min) was 0 CFU/ml. For the same compound, the viability (Enterobacter aerogenes; treatment time 10 min) was “(0) %”, the colonies counted (Escherichia coli; treatment time 0.5 min) was 8.9 × 10^7 CFU/ml and the viability (Escherichia coli; treatment time 0.5 min) was 3.7%. The colonies counted (Escherichia coli; treatment time 1 min) was 3.1 × 10^7 CFU/ml, the viability (Escherichia coli; treatment time 1 min) was “(1.3) %” and the colonies counted (Escherichia coli; treatment time 5 min) was 9.0 × 10^6 CFU/ml. For the same compound, the viability (Escherichia coli; treatment time 5 min) was “(0.3) %”, the colonies counted (Escherichia coli; treatment time 10 min) was 0 CFU/ml and the viability (Escherichia coli; treatment time 10 min) was “(0) %”. The colonies counted (Pseudomonas aeruginosa; treatment time 0.5 min) was 1.2 × 10^8 CFU/ml, the viability (Pseudomonas aeruginosa; treatment time 0.5 min) was “(35) %” and the colonies counted (Pseudomonas aeruginosa; treatment time 1 min) was 7.5 × 10^7 CFU/ml. For the same compound, the viability (Pseudomonas aeruginosa; treatment time 1 min) was 22%, the colonies counted (Pseudomonas aeruginosa; treatment time 5 min) was 3.6 × 10^6 CFU/ml and the viability (Pseudomonas aeruginosa; treatment time 5 min) was 1%. The colonies counted (Pseudomonas aeruginosa; treatment time 10 min) was 0 CFU/ml, the viability (Pseudomonas aeruginosa; treatment time 10 min) was “(0) %” and the colonies counted (Salmonella typhimurium; treatment time 0.5 min) was 8.4 × 10^8 CFU/ml. For the same compound, the viability (Salmonella typhimurium; treatment time 0.5 min) was 34%, the colonies counted (Salmonella typhimurium; treatment time 1 min) was 1.1 × 10^7 CFU/ml and the viability (Salmonella typhimurium; treatment time 1 min) was 0.4%. For the same compound, the colonies counted (Salmonella typhimurium; treatment time 5 min) was 1.5 × 10^6 CFU/ml, the viability (Salmonella typhimurium; treatment time 5 min) was “(0.06) %” and the colonies counted (Salmonella typhimurium; treatment time 10 min) was 0 CFU/ml. The viability (Salmonella typhimurium; treatment time 10 min) was “(0) %”, the colonies counted (Staphylococcus aureus; treatment time 0.5 min) was 1.0 × 10^8 CFU/ml and the viability (Staphylococcus aureus; treatment time 0.5 min) was “(15) %”. For the same compound, the colonies counted (Staphylococcus aureus; treatment time 1 min) was 6.4 × 10^7 CFU/ml, the viability (Staphylococcus aureus; treatment time 1 min) was “(9.4) %” and the colonies counted (Staphylococcus aureus; treatment time 5 min) was 1.2 × 10^7 CFU/ml. The viability (Staphylococcus aureus; treatment time 5 min) was “(1.8) %”, the colonies counted (Staphylococcus aureus; treatment time 10 min) was 1.1 × 10^5 CFU/ml and the viability (Staphylococcus aureus; treatment time 10 min) was “(0.01) %”.
